Values quoted from earlier work as cited in patent US5621142A, “Aminoalkylcyclopropane derivatives” (Asahi Kasei Kogyo Kabushiki Kaisha, priority 1994, dated 1997).

Columns and labels:
[1] = system: synaptosomal uptake of 5-HT; conditions: Neuropharmacology, Vol. 24, No. 12, 1211-1219, 1985
[2] = system: synaptosomal uptake of norepipephrine; conditions: Neuropharmacology, Vol. 24, No. 12, 1211-1219, 1985

CCN(CC)C(=O)C1(c2ccccc2)CC1CN.Cl (centres unmarked) [compound (A), 1-phenyl-1-diethylaminocarbonyl-2-aminomethyl-cyclopropane hydrochloride]
activity to inhibit the synaptosomal uptake of 5-HT [1]: has an activity to inhibit the synaptosomal uptake of norepipephrine and 5-HT
activity to inhibit the synaptosomal uptake of norepipephrine [2]: has an activity to inhibit the synaptosomal uptake of norepipephrine and 5-HT
